Data taken from patent EP0560274B1, “Antiherpes peptide derivatives having a ureido N-terminus” (priority 1992, dated 1993).
*1 amine or outer side, *2 acyl side, *3 side chain or, on linkers, in order; H or OH if unused. Where a SMILES comes first, the peptide text is derived from it. [ ]: non-standard residue; d: D form. The star is where a group is joined. Asp(3,3-(CH2)4) = N[C@H](C(=O)O)C1(C(=O)O)CCCC1; tBuAla = CC(C)(C)C[C@H](N)C(=O)O; Tle = CC(C)(C)[C@H](N)C(=O)O; Pyrrolidide = C1CCN(*)C1; CO = O=C([*:1])[*:2]; X3 = CCCC(C)(C)N*

System: Herpes Simplex Virus (HSV-2)
Assay type: cell-based
Conditions: 29 h
Experimental: BHK-21/C13 cells (ATCC CCL 10) are incubated for two days in 150 cm^2 T-flasks (1.5 x 10^6 cells/flask) with alpha-MEM medium (Gibco Canada Inc., Burlington, Ontario, Canada) supplemented with 8% (v/v) fetal bovine serum (FBS, Gibco Canada Inc.). The cells are trypsinized and then transferred to fresh media in a 24 well plate to give 2.5 x 10^5 cells in 750 µL of media per well. The cells are incubated at 37° for a period of 6 h to allow them to adhere to the plate. Thereafter, the cells are washed once with 500 µL of alpha-MEM supplemented with 0.5% (v/v) FBS and then incubated with 750 µL of the same media (low serum) for 3 days. After this period of serum starvation, the low serum medium is removed and the cells are incubated in 500 µL of BBMT for 2 to 3 hours. {BBMT medium is described by P. Brazeau et al., Proc. Natl. Acad. Sci. USA, 79, 7909 (1982).} Thereafter, the cells are infected with HSV-2 (multiplicity of infection = 0.02 PFU/cell) in 100 µL of BBMT medium. (Note: The HSV-2 used was strain HG-52, see Y. Langelier and G. Buttin, J. Gen. Virol., 57, 21 (1981); the virus was stored at -80°.) Following 1 h of virus adsorption at 37°, the media is removed and the cells are washed with BBMT (3 X 250 µL). The cells in each well are incubated with or without (control) appropriate concentrations of the test agent dissolved in 200 µL of BBMT medium. After 29 h of incubation at 37°, the infected cells are harvested by first freezing the plate at -80°, followed by thawing. The cells in each well are scraped off the surface of the well with the help of the melting ice fragments. After complete thawing, the cell suspensions are collected and each well is rinsed with 150 µL of BBMT medium. The viral sample (suspension plus washing) is sonicated gently for 4 min at 4°. Cell debris are removed by centrifugation (1000 times gravity for 10 minutes at 4°). The supernatant is collected and stored at -80° until determination of viral titer.
Viral titration was performed by a modification of the colorimetric assay method of M. Langlois et al., Journal of Biological Standardization, 14, 201 (1986).
More specifically, in a similar manner as described above, BHK-21/C13 cells are trypsinized and transferred to fresh media in a 96 well microtiter plate to give 20,000 cells in 100 µL of media per well. The cells in the prepared plate are incubated at 37° for, 2 h. During that time, the viral sample is thawed and sonicated gently for 15 seconds, and log dilutions of the sample are prepared (1/5 sequential: 50 µL of the sample plus 200 µL of BBMT medium, sequential dilutions being done with a multichannel pipette.
On completion of the above 2 hour incubation of the BHK-21/C13 cells, the media is replaced with alpha-MEM medium supplemented with 3% (v/v) FBS. The cells are now ready to be infected with the various sample dilutions of virus. Aliquots (50 µL) of the various dilutions are transferred into the appropriate wells of the plate. The resulting infected cells are incubated for 2 days at 37°. Then 50 µL of a 0.15% (v/v) solution of neutral red dye in Hank's Balanced Salt Solution (pH 7.3, Gibco Canada Inc.) is added to each well. The prepared plate is incubated for 45 min at 37°. Medium from each well is then aspirated and the cells are washed once with 200 µL of Hank's Balanced Salt Solution. After the wash, the dye is released from the cells by the addition of 100 µL of a 1:1 mixture of 0.1 M Sorensen's citrate buffer (pH 4.2) and ethanol. {Sorensen's citrate buffer is prepared as follows: Firstly, a 0.1 M disodium citrate solution is prepared by dissolving citric acid monohydrate (21 g) in 1 N aqueous NaOH (200 mL) and adding sufficient filtered H2O to make 1 L. Secondly, the 0.1 M disodium citrate solution (61.2 mL) is mixed with 0.1 N aqueous HCl (38.8 mL) and the pH of the resulting solution is adjusted to 4.2 if necessary.} The mixture in the wells is subjected to a gentle vortex action to ensure proper mixing.

EC50 [µM]	SMILES
140	CCCC(CCC)NC(=O)N[C@H](C(=O)N[C@@H](CC(=O)C1CCCCC1)C(=O)N[C@H](C(=O)NCC(C)(C)C)C1(C(=O)O)CCCC1)C(C)(C)C [Pr2CHNHC(O)-Tbg-NHCH(2-cyclohexyl-2-oxoethyl)C(O)-Asp(cyPn)-NHCH2CMe3]
90	CCCC(CCC)NC(=O)N[C@H](C(=O)N[C@@H](CC(=O)C1CCCC1)C(=O)N[C@H](C(=O)NCC(C)(C)C)C1(C(=O)O)CCCC1)C(C)(C)C [Pr2CHNHC(O)-Tbg-NHCH(2-cyclopentyl-2-oxoethyl)C(O)-Asp(cyPn)-NHCH2CMe3]
25	CCCC(CCC)NC(=O)N[C@H](C(=O)N[C@@H](CC(=O)C(CC)CC)C(=O)N[C@H](C(=O)NCC(C)(C)C)C1(C(=O)O)CCCC1)C(C)(C)C [Pr2CHNHC(O)-Tbg-NHCH(3-ethyl-2-oxopentyl)CO-Asp(cyPn)-NHCH2CMe3]
75	CCCC(CCC)NC(=O)N[C@H](C(=O)N[C@@H](CC(=O)N1CCCC1)C(=O)N[C@H](C(=O)N[C@H](CO)CC(C)(C)C)C1(C(=O)O)CCCC1)C(C)(C)C [Title Compound of Example 8, Pr2CHNHC(O)-Tbg-Asp(pyrrolidino)-Asp(cyPn)-γMeLeucinol]

SMILES	EC50 [µM]
CCCC(C)(C)NC(=O)N[C@H](C(=O)N[C@@H](CC(=O)N1CCCC1)C(=O)N[C@H](C(=O)N[C@@H](CC(C)(C)C)C(=O)O)C1(C(=O)O)CCCC1)C(C)(C)C [PrMe2CNHC(O)-Tbg-Asp(pyrrolidino)-Asp(cyPn)-γMeLeu-OH] ({X3-CO}-[Tle]D(Pyrrolidide)[Asp(3,3-(CH2)4)][tBuAla]-OH)	110
